Results reported in paper PMC11847706, “Deep learning enhances the prediction of HLA class I-presented CD8^+ T cell epitopes in foreign pathogens” (Nature Machine Intelligence, 2025).

Columns and labels:
PBMCs = assay: Ex vivo IFNγ ELISpot assay; assay type: cell-based, human; conditions: for Effector CD8^+ T cell responses across multiple individuals: ex vivo IFNγ ELISpot, HLA-A*02:01-restricted, Fig. 6c
Procedure: IFNγ ELISpot assays were performed according to the manufacturer’s instructions (Mabtech). PBMCs were incubated with individual peptides from EBV at a final concentration of 0.5 μg ml^−1 for 16–18 h. Positive controls were anti-human CD3 (Clone OKT3, BioLegend, 0.5 μg ml^−1) and anti-human CD28 (Clone CD28.2, BioLegend, 0.5 μg ml^−1) antibodies. The number of spot-forming units in the highest-value DMSO control well was subtracted from each experimental well. Responses were considered positive if both replicates had greater than or equal to five spot-forming units per well above background.

CD8^+ T cells = assay: Ex vivo proliferation assay (CellTrace Far Red); assay type: cell-based, human; conditions: HLA-A*02:01-restricted, Fig. 6d
Procedure: PBMCs were suspended at 1 × 10^6 cells per ml in 1 μM CellTrace Far Red dye (ThermoFisher) in PBS and incubated at 37 °C for 20 min. Cells were protected from light and mixed every 5 min during the incubation. RPMI supplemented with 10% fetal bovine serum was added to quench the reaction for 5 min, followed by centrifugation at 1,500 rpm for 3 min before resuspension in culture media. Cells were plated into 96-well U-bottom plates (Corning) (200,000 cells per well in 200 μl of culture media) and incubated with individual EBV peptides at a concentration of 0.5 μg ml^−1 for 5 days. Cells were washed with PBS supplemented with 2% fetal bovine serum and stained with anti-human CD3-BUV395 (Clone UCHT1, BD Biosciences, 1:100 dilution), anti-human CD4-PE-Cy7 (Clone OKT4, BioLegend, 1:100 dilution), anti-human CD8-BV605 (Clone SK1, BioLegend, 1:100 dilution) and live/dead violet viability dye (Life Technologies). Cells were washed and fixed in 2% paraformaldehyde and flow cytometric analysis was performed on a BD LSR Fortessa (BD Biosciences).

| Sequence | Effector CD8^+ T cell responses across multiple individuals (PBMCs) | Memory CD8^+ T cell responses across multiple individuals (CD8^+ T cells) | Immunogenicity (T cell reactivity) (PBMCs; HLA-A*02:01, 15mer, LMP2A: 71-85) |
| --- | --- | --- | --- |
| SIIPRTPDV [A*02-SV9] | capable of eliciting | capable of eliciting | – |
| HSDYQPLGTQDQSLY | – | – | immunogenic |
| YVLDHLIVV [A*02-YV9] | capable of eliciting | capable of eliciting | – |
